From paper PMC9864776, “Synthesis of Novel Polymer-Assisted Organic-Inorganic Hybrid Nanoflowers and Their Application in Cascade Biocatalysis” (Molecules, 2023) come the findings set out here.

The assay deals with T1, horseradish peroxidase (HRP) (Armoracia rusticana, UniProt P00433).
T1 construct: gene PRXC1A; commercial native enzyme from horseradish, Alfa Aesar; free in solution, together with GOx
T1 sequence (P00433 31-338): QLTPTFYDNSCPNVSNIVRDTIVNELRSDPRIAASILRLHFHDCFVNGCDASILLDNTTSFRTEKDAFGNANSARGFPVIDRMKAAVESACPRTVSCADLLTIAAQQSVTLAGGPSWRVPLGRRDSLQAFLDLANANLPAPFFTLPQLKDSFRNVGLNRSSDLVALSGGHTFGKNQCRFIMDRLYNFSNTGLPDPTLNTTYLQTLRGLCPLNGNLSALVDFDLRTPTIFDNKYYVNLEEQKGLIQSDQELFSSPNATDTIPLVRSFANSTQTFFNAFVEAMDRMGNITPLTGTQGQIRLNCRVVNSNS
The assay can be described thus: GOx/HRP cascade, TMB oxidation by H2O2 formed by GOx, absorbance at […] nm. In kind it is biochemical. The conditions noted are these: H2O2 from GOx and glucose, 0.2 M acetate buffer pH 4, 20-23 °C; free enzymes.

As for `Cc1cc(-c2cc(C)c(N)c(C)c2)cc(C)c1N` [TMB, 3,3′,5,5′-tetramethylbenzidine], the “GOx/HRP cascade, TMB oxidation by H2O2 formed by GOx, absorbance at 652 nm” value is on record as “the HRP used this H2O2 to oxidize a chromophore compound (TMB)”.
